This is an account of results in article PMC4707489, “A novel cell-penetrating peptide suppresses breast tumorigenesis by inhibiting β-catenin/LEF-1 signaling” (Scientific Reports, 2016).

The subject of data set [1] is MDA-MB-231 cells. The experiment in a line: Cell growth (CCK-8). The class given is cell-based, human.
Protocol: (§4) Cell growth was analyzed using 2-(2-methoxy-4-nitrophenyl)-3-(4-nitroph enyl)-5-(2,4-disulfophenyl)-2H-tetrazolium, monosodium salt, and the Cell Counting Kit-8 (CCK-8, Sigma). […] After culturing for another 48 hr, cell growth was analyzed by CCK-8 and the optical density was detected at 450 nm. The growth ratio was normalized to the cells without treatment.
The test system of data set [2] is β-catenin/TCF4/LEF-1 downstream genes. The experiment in a line: Q-PCR of 27 candidate genes in MCF-7. The class given is cell-based, human. To be noted: MCF-7, 100 μmol/l, 48 hr post-transfection, relative to TAT-NLS-BLBD-6m (Fig. 6d). As for the experimental part: (§1) Total RNA was isolated by Trizol reagent (Invitrogen, Carlsbad, CA, USA) and reverse transcribed to produce cDNA using the Deoxy + HiSpec reverse transcriptase kit (Yeastern, Taipei, Taiwan) according to the manufacturer instructions. Q-PCR was analyzed with SYBR Green Master Mix (Applied Biosystems, Stockholm, Sweden) and subjected to quantitation in an […]. The primers used for PCR are given in Supplementary Table S5 online. The Q-PCR data were normalized to 18S cDNA levels.

Data set [3] shares this test system. The experiment in a line: Q-PCR of 27 candidate genes in MDA-MB-231. The class given is cell-based, human. To be noted: MDA-MB-231, 100 μmol/l, 48 hr post-transfection, relative to TAT-NLS-BLBD-6m (Fig. 6e). As for the experimental part: as §1
In a further data set the test system is breast cancer cells. The experiment in a line: Cell growth in combination with E2, BBP or TAM (CCK-8). The class given is cell-based, human. To be noted: 48 hr (Fig. 1e).
Data set [4] has as its system MCF-7 cells. Description: Cell growth (CCK-8). The class given is cell-based, human.
Protocol: as §4
Data set [5] concerns MDA-MB-231 cells. The experiment in a line: Transwell invasion assay. The class given is cell-based, human. The settings on record: MDA-MB-231, 100 μmol/l, 48 hr post-transfection, vs control or TAT-NLS-BLBD-6m (Fig. 3c). As for the experimental part:
(§2) Transwell chambers of […] pore size were used in the in vitro invasion assay. MCF-7 and MDA-MB-231 cells were seeded onto the upper chamber and incubated with TAT-NLS-BLBD-6 and TAT-NLS-BLBD-6m peptide and 10% fetal bovine serum medium were added to the bottom chamber well. After 24 hr, cells invading the lower chamber were fixed with 4% paraformaldehyde solution and stained with 0.1% crystal violet for 30 min at 37 °C. Three random field images were obtained by microscopy, and the number of invading cells were counted. For the migration assay, MCF-7 and MDA-MB-231 cells were seeded onto 6-well plates. After 24 hr, an artificial wound was created using a 10-μl pipette tip, and the wound was incubated with TAT-NLS-BLBD-6 or TAT-NLS-BLBD-6m for 24 hr at 37 °C. The images of wound healing were captured by microscopy, and the wound healing distances were calculated by Image J (U.S. National Institutes of Health, Bethesda, MD, USA). For the colony formation assay, MCF-7 and MDA-MB-231 cells were seeded into 10-cm dishes with the medium containing TAT-NLS-BLBD-6 or TAT-NLS-BLBD-6m. After 2 weeks, cells were fixed with 4% paraformaldehyde solution and stained with 0.1% crystal violet for 30 min at 37 °C.

Data set [6] concerns MCF-7 cells. Description: Transwell invasion assay. The class given is cell-based, human. To be noted: MCF-7, 100 μmol/l, 48 hr post-transfection, vs control or TAT-NLS-BLBD-6m (Fig. 3c). As for the experimental part:
as §2

Data set [7] has as its system MDA-MB-231 cells. The experiment in a line: Colony-formation assay. It counts as cell-based, human. To be noted: MDA-MB-231, 100 μmol/l, 14 day post-transfection (Fig. 3e). As for the experimental part:
as §2

Data set [8] relates to MCF-7 cells. The experiment in a line: Colony-formation assay. The class given is cell-based, human. To be noted: MCF-7, 100 μmol/l, 14 day post-transfection (Fig. 3e). As for the experimental part:
as §2

In data set [9] the test system is MDA-MB-231 cells. The experiment in a line: Wound-healing migration assay. To be noted: MDA-MB-231, 100 μmol/l, 48 hr post-transfection, vs control or TAT-NLS-BLBD-6m (Fig. 3d). The class given is cell-based, human. As for the experimental part:
as §2

The subject of data set [10] is MCF-7 cells. The experiment in a line: Wound-healing migration assay. The class given is cell-based, human. The settings on record: MCF-7, 100 μmol/l, 48 hr post-transfection, vs control or TAT-NLS-BLBD-6m (Fig. 3d). As for the experimental part: as §2
Data set [11] has as its system MDA-MB-231 cells. Description: TUNEL apoptosis assay. The class given is cell-based, human. To be noted: MDA-MB-231, 100 μmol/l, vs control or TAT-NLS-BLBD-6m (Fig. 3b). As for the experimental part:
(§3) MCF-7 and MDA-MB-231 cells were cultured in 35-mm plates with cover slides on the plate bottom and treated with NLS-BLBD-6, TAT-BLBD-6 and TAT-NLS-BLBD-6 peptide for 24 hr. Subsequently, cells were fixed with 4% paraformaldehyde and permeabilized with 0.2% Triton X-100 for 20 min at room temperature. For the immunofluorescence assay, the slides were incubated with primary antibodies, anti-β-catenin (Epitomics) and anti-TAT (Santa Cruz), for 6 hr, and Alexa-488 fluorescence secondary antibodies for 1 hr. DAPI (Sigma, St Louis, MO) was used to stain the nucleus for 1 min at room temperature. For the TUNEL assay, apoptosis was analyzed by the Apo-BrdU-red DNA Fragmentation Assay kit, according to the manufacturer’s protocol (BioVision, Mountain View, CA, USA). For the PLA, the protein–protein interaction assay was analyzed by Duolink® using PLA® Technology, according to the manufacturer’s protocol (Olink Bioscience, Uppsala, Sweden). Briefly, the slides were incubated with primary antibodies, anti-β-catenin (Epitomics) and anti-TAT (Santa Cruz), and secondary antibodies, Duolink PLA Rabbit MINUS and PLA Mouse PLUS proximity probes. Finally, the proximity ligation was performed by the Duolink detection reagent kit (Olink Bioscience). The immunofluorescence image and TUNEL staining was photographed by a microscope (IX-71, Olympus, Tokyo, Japan).

In data set [12] the test system is MCF-7 cells. Description: TUNEL apoptosis assay. To be noted: MCF-7, 100 μmol/l, vs control or TAT-NLS-BLBD-6m (Fig. 3b). The class given is cell-based, human. As for the experimental part:
as §3

Protocol for breast cancer cells: as §4

For H-TAT-NLS-ATDEMIPF-NH2 [TAT-NLS-BLBD-6], the cell growth result is given as “inhibited the growth” in the data set on MDA-MB-231 cells [1] (75 μmol/l peptide, MDA-MB-231, CCK-8, means of three experiments (Fig. 1b)) and “inhibited the growth” in the data set with MCF-7 cells [4] (75 μmol/l peptide, MCF-7, CCK-8, means of three experiments (Fig. 1b)). Besides, the “time and dose dependence of cell growth” value with MDA-MB-231 cells [1] (MDA-MB-231, indicated concentrations, 24, 48 and 72 hr (Fig. 1c,d)) was “inhibited breast cancer cell growth in a time- and dose-dependent manner”; in the data set with MCF-7 cells [4] (MCF-7, indicated concentrations, 24, 48 and 72 hr (Fig. 1c,d)), “inhibited breast cancer cell growth in a time- and dose-dependent manner”. The “gene expression of the 27 candidate genes” value in data set [2] and in data set [3] was “decreased” throughout. For the same substance, the “cell growth, combination with E2 or BBP” value in the data set with breast cancer cells (peptide 100 μmol/l with E2 (1 μM) or BBP (1 μM)) was “blocked the activity of E2 and BBP”. Moreover, the “cell growth, combination with TAM” value with breast cancer cells (peptide 100 μmol/l with TAM (1 μM)) was “increased the response of TAM”. Also, the invasion result in the data set with MDA-MB-231 cells [5] and in the data set with MCF-7 cells [6] was “inhibited the mobility” throughout. Besides, the “cell growth of normal mammary epithelial cells” value with H184B5F5/M10 cells is on record as “did not inhibit the growth”. Also, the colony formation result in the data set on MDA-MB-231 cells [7] was “inhibited the mobility and proliferation”; in the data set on MCF-7 cells [8], “inhibited the mobility and proliferation”. Besides, in the data set on HEK293 cells, the “cell growth of embryonic kidney cells” value is listed as “did not inhibit the growth”. Besides, the “migration (wound healing)” value in the data set on MDA-MB-231 cells [9] and in the data set on MCF-7 cells [10] was “inhibited the mobility” throughout. Moreover, the “apoptosis (TUNEL, BrdU binding and DNA fragmentation)” value in the data set on MDA-MB-231 cells [11] was “increased the effect of binding with BrdU and DNA fragmentation”; in the data set with MCF-7 cells [12] it was “increased the effect of binding with BrdU and DNA fragmentation”.
